The source of these data is patent publication US5326882A, “Chemiluminescent 3-(substituted Adamant-2'-Ylidene) 1,2-dioxetanes” (Tropix, Inc., priority 1992, dated 1994).

Test [1] concerns the target T1, alkaline phosphatase (Bos taurus, UniProt P19111). The test is described as follows: Detection limits for alkaline phosphatase, Berthold LB952T (Example XXII). The settings on record: twice background. The format is biochemical. Here is the method: The detection means for alkaline phosphatase with different chemiluminescent 1,2-dioxetane substrates were determined as follows: Duplicates of serial dilutions (1 to 3) of alkaline phosphates were incubated at room temperature with 0.4 mM dioxetane in 0.1 M diethanolamine, 1 mM MgCl2, pH 10.0, containing 1 mg/ml of either of the polymeric enhancers Enhancer 1 or Enhancer 2, in […].
Following either a 5 or a 20 minute incubation with a substrate, the chemiluminescence intensity was measured as a 5 second integrated Relative Light Units (RLU) and plotted as in FIG. 10. […] The alkaline phosphatase concentrations at twice background were used as the detection limits in Table 5.

In test [2] the target is T1, alkaline phosphatase. Description: Chemiluminescent signal-to-noise levels with enhancers (Example XXIV). The class given is biochemical. Here is the method:
The chemiluminescent signal to noise levels were obtained with 2.83×10^-13 M alkaline phosphatase and various R-substituted adamantyl 1,2-dioxetane phosphates in the presence of several enhancers. All measurements were performed in a Berthold LB952T luminometer at room temperature. First, the background chemiluminescence levels (signal in the absence of the enzyme) of each sample (in triplicate) were measured. Each sample consisted of 0.2 μmoles of dioxetane in 0.45 ml of 0.1 M diethanolamine, 1 mM MgCl2, pH 10.0, without or with 1 mg/ml of the indicated enhancer. Tubes were inserted into the luminometer and the luminescence intensity was measured. Next, the tubes were removed from the luminometer and alkaline phosphatase (50 μl containing 1.415×10^-16 moles) was added to each tube, and the luminescence intensity was measured at 5 and 20 minutes after substrate addition. The final concentration of dioxetane in each tube was 0.4 mM.
All enhancers used at 1 mg/ml in 0.1 M DEA, pH 10. Alkaline phosphatase concentration=2.83×10^-13 M. Measurements performed in a Berthold LB952T Luminometer.

Test [3] addresses T2, biotinylated pBR322-35mer detected with Avidix-AP (Bos taurus, UniProt P19111).
T2 construct: purchased Tropix, Inc
The test is described as follows: Half-time to maximum chemiluminescence, biotinylated DNA on membranes (Example XXVIII). The settings on record: 12.5 pg DNA, […] dioxetane in 0.1 M DEA, pH 10.0. On the procedure:
The performance of AMPPD and Cl-AMPPD on a nylon membrane was compared as follows: 12.5 picograms of biotinylated-pBR322-(35 mer) in 1 μL was spotted onto dry nylon membrane and crosslinked to the membrane with UV light. The membrane subsequently wetted with 1×SSC buffer, incubated with 0.2% casein, 0.1% Tween-20 in phosphate buffered saline (PBS) for 1 hour at room temperature, washed 4 times with 0.3% Tween-20 in PBS, washed twice in Substrate Buffer (0.1 M diethanolamine, 1 mM MgCl2, pH 10.0), and incubated for 5 minutes in 0.25 mM dioxetane in Substrate Buffer. In this fashion, two membranes: one incubated with AMPPD and the second with Cl-AMPPD, were generated. The membranes were then sealed in plastic, attached to the outside of a 12×75 mm glass test tube, and inserted into Turner Model 20-E luminometer equipped with a side-mounted photomultiplier detector and thermally equilibrated to 30° C. The chemiluminescence intensity was then monitored for 20-24 hours.
The half-times to the maximum chemiluminescence intensity obtained with AMPPD and Cl-AMPPD on PVDF and nylon membranes were calculated from data collected as described in Example XXVII, for the nylon membrane. For PVDF membrane, the revised protocol included the second Substrate Buffer wash followed by the membrane incubation for 5 minutes at room temperature in the Tropix NitroBlock™ reagent and a subsequent wash with Substrate Buffer prior to the dioxetane substrates addition. The half-times to the maximum chemiluminescent signal were calculated from the a plot of the logarithm (maximum chnemiluminescent signal minus signal at each time point) as a function of time and is shown in Table 9.
12.5 pg of biotinylated pBR322-35mer was detected with Avidix-AP and 0.24 mM dioxetane in 0.1 M DEA, pH 10.0.

Test [4] concerns alkaline phosphatase ("AP"). The settings on record: cited from earlier work.
Test [5] deals with T3, avidin-alkaline phosphatase conjugate (Bos taurus, UniProt P19111).
T3 construct: purchased Sigma, Inc., St. Louis, Mo
The test is described as follows: Dot blot of biotinylated pBr 322 35-mer on nylon membrane, instant film (Example XIV). The settings on record: 0.25 mM, pH 10, nylon membrane, FIG. 11. On the procedure: A strip of neutral BIODYNE A nylon membrane (Pall Corporation, Glen Cove, N.Y.) was dotted twice (side-by-side) with the following concentrations of biotinylated pBr 322 35-mer oligonucleotide probe (Synthetic Genetics, San Diego, Calif.):
Next, the membrane was blocked in 0.2% casein/0.1% Tween 20 detergent in aqueous phosphate buffered saline solution (PBS) for 1 hour, following which 1/5000 diluted avidin-alkaline phosphatase conjugate (Sigma, Inc., St. Louis, Mo.) in 0.2% casein in PBS was added. The membrane was then incubated for 30 minutes, washed twice (for 5 minutes each time) in 0.2% casein/0.1% Tween 20 detergent in PBS, washed four times (for 5 minutes each time) in 0.3% Tween 20 detergent in PBS, and twice (for 5 minutes each time) in aqueous 0.1M diethanolamine containing 1 mM magnesium chloride, pH 10.0.
The membrane was then cut up the middle to give two strips, each bearing one set of dots. One of the strips was incubated for 5 minutes in aqueous AMPPD solution (0.25 mM in 0.1M diethanolamine containing 1 mM magnesium chloride, pH 10), the other for 5 minutes in the corresponding chloroadamant-2'-ylidene compound (0.25 mM in the same buffer). The two strips were then placed in camera luminometers and exposed on Polaroid Type 612 instant black and white film.

Where [6] appears, read: enhancer NONE, 5 min, alkaline phosphatase 2.83×10^-13 M.
[7] abbreviates: PVDF membrane treated with NitroBlock.

T2 sequence (P19111 20-506 limits assumed): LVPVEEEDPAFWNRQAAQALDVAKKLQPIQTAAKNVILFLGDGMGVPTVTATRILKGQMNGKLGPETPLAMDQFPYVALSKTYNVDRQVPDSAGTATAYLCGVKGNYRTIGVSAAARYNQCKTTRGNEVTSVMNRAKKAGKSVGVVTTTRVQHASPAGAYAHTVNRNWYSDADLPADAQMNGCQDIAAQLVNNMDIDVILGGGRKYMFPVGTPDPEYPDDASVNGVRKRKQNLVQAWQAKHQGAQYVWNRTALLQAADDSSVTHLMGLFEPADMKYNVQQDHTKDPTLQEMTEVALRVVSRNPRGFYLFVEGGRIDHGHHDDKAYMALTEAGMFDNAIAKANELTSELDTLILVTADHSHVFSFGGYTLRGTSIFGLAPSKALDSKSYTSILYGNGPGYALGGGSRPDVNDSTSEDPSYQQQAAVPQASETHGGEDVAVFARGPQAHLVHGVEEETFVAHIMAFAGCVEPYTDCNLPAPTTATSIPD
T1 sequence (P19111 20-506 limits assumed): as above
T3 sequence (P19111 20-506 limits assumed): as above
T3 sequence (P02701 25-152 partner): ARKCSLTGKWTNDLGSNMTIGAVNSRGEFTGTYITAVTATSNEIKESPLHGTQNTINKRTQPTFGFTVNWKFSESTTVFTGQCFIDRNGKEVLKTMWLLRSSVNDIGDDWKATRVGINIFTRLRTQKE

As for `COC1(c2cccc(OP(=O)(O)O)c2)OOC12C1CC3CC(C1)CC2C3` (stereo not shown) [AMPPD, 3-(4-methoxyspiro[1,2-dioxetane-3,2'-triyclo[3.3.1.1^3,7]decan]-4-yl)phenyl phosphate, reference compound], the “Detection limit for alkaline phosphatase” value at alkaline phosphatase [1] (ENHANCER 1, 5 MIN) turned out to be 4.0 femtomoles/liter; at alkaline phosphatase [1] (ENHANCER 1, 20 MIN), 1.4 femtomoles/liter; on alkaline phosphatase [1] (ENHANCER 2, 5 MIN), 3.5 femtomoles/liter; at alkaline phosphatase [1] (ENHANCER 2, 20 MIN), 1.1 femtomoles/liter. Also, the chemiluminescent signal-to-noise level at alkaline phosphatase [2] (EMERALD 1 1 mg/ml, 5 min) came out at 109; on alkaline phosphatase [2] (EMERALD 1 1 mg/ml, 20 min), 282; on alkaline phosphatase [2] (EMERALD 2 1 mg/ml, 5 min), 113; on alkaline phosphatase [2] (EMERALD 2 1 mg/ml, 20 min) it was 291; on alkaline phosphatase [2] (SAPPHIRE 1 1 mg/ml, 5 min) it was 159; at alkaline phosphatase [2] (SAPPHIRE 1 1 mg/ml, 20 min), 364. The chemiluminescent signal-to-noise level at alkaline phosphatase [2] (SAPPHIRE 2 1 mg/ml, 5 min) is 192; on alkaline phosphatase [2] (SAPPHIRE 2 1 mg/ml, 20 min), 434; at alkaline phosphatase [2] (setting [6]) it was 21; on alkaline phosphatase [2] (enhancer NONE, 20 min), 34. For the same compound, the “HALF-TIME TO MAXIMUM CHEMILUMINESCENCE” value is on record as 99.83 min in test [3] (Nylon membrane) and 49.51 min in test [3] (setting [7]). Also, in test [4], the “moles whose phosphoryloxy group is cleaved by a single mole of alkaline phosphatase per second” value is 1,000-5,000 moles per second.
Take `COC1(c2cccc(OP(=O)(O)O)c2)OOC12C1CC3CC2CC(Cl)(C3)C1` (stereo not shown) [Cl-AMPPD, disodium 3-(4-methoxyspiro-[1,2-dioxetane-3,2'-(5'-chloro)tricyclo[3.3.1.1^3,7]decan]-4-yl) phenyl phosphate]: the “chemiluminescence intensity as compared to AMPPD” value in test [5] is on record as “improved chemiluminescence intensity”. The “Detection limit for alkaline phosphatase” value on alkaline phosphatase [1] (ENHANCER 1, 5 MIN) was found to be 1.0 femtomoles/liter; on alkaline phosphatase [1] (ENHANCER 1, 20 MIN), 0.6 femtomoles/liter; on alkaline phosphatase [1] (ENHANCER 2, 5 MIN) it was 0.8 femtomoles/liter; at alkaline phosphatase [1] (ENHANCER 2, 20 MIN) it was 0.4 femtomoles/liter. In addition, the chemiluminescent signal-to-noise level on alkaline phosphatase [2] (EMERALD 1 1 mg/ml, 5 min) is listed as 583; at alkaline phosphatase [2] (EMERALD 1 1 mg/ml, 20 min), 964; at alkaline phosphatase [2] (EMERALD 2 1 mg/ml, 5 min), 839; on alkaline phosphatase [2] (EMERALD 2 1 mg/ml, 20 min) it was 1280; on alkaline phosphatase [2] (SAPPHIRE 1 1 mg/ml, 5 min) it was 577; at alkaline phosphatase [2] (SAPPHIRE 1 1 mg/ml, 20 min), 827. Also, the chemiluminescent signal-to-noise level on alkaline phosphatase [2] (SAPPHIRE 2 1 mg/ml, 5 min) was 1319; on alkaline phosphatase [2] (SAPPHIRE 2 1 mg/ml, 20 min), 2221; on alkaline phosphatase [2] (setting [6]), 82; at alkaline phosphatase [2] (enhancer NONE, 20 min), 98. Besides, the “HALF-TIME TO MAXIMUM CHEMILUMINESCENCE” value in test [3] (Nylon membrane) is reported as 47.48 min; in test [3] (setting [7]), 14.20 min.
